How the values were obtained:
barnyardgrass [1] = assay: Test A preemergence; assay type: in vivo, Echinochloa crus-galli; details: Echinochloa crus-galli, pre-emergence, 240 h, 0 to 100 scale (0 no effect, 100 complete control), read-out: Plant response rating, Barnyardgrass
Summary of the method: (§1)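 Test chemicals, formulated in a surfactant-containing non-phytotoxic solvent mixture, are applied either as a directed soil spray to newly planted seeds or as a postemergence application to plants at the one- to two-leaf stage (2–10 cm). All plants grow in a loam soil and sand blend.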

kochia = assay: Test C postemergence; assay type: in vivo, Kochia scoparia
Excerpt: (§2) Seeds of plant species selected from blackgrass (Alopecurus myosuroides), ryegrass, Italian (Italian ryegrass, Lolium multiflorum), wheat (winter wheat, Triticum aestivum), galium (catchweed bedstraw, Galium aparine), corn (Zea mays), crabgrass, large (large crabgrass, Digitaria sanguinalis), foxtail, giant, (giant foxtail, Setaria faberii), johnsongrass (Sorghum halepense), lambsquarters (Chenopodium album), morningglory (Ipomoea coccinea), nutsedge, yellow (yellow nutsedge, Cyperus esculentus), pigweed (Amaranthus retroflexus), ragweed (common ragweed, Ambrosia elatior), soybean (Glycine max), barnyardgrass (Echinochloa crus-galli), oilseed rape (Brassica napus), waterhemp (common waterhemp, Amaranthus rudis), and velvetleaf (Abutilon theophrasti) were planted into a blend of loam soil and sand and treated preemergence with test chemicals formulated in a non-phytotoxic solvent mixture which included a surfactant. At the same time, plants selected from these crop and weed species and also chickweed (common chickweed, Stellaria media), oat, wild (wild oat, Avena fatua), and kochia (Kochia scoparia), were planted in pots containing Sunshine Redi-Earth® planting medium comprising spaghnum peat moss, vermiculite, starter nutrients and dolomitic limestone and treated with postemergence applications of test chemicals formulated in the same manner. Plants ranged in height from 2 to 18 cm (1- to 4-leaf stage) for postemergence treatments. […] A dash (-) response means no test result.

pigweed = assay: Test A postemergence; assay type: in vivo, Amaranthus retroflexus; details: Amaranthus retroflexus, post-emergence, 240 h, 0 to 100 scale (0 no effect, 100 complete control), approx. 10 d, read-out: Plant response rating, Pigweed
Summary of the method: as §1

waterhemp = assay: Test C postemergence; assay type: in vivo, Amaranthus rudis
Excerpt: as §2

barnyardgrass [2] = assay: Test A postemergence; assay type: in vivo, Echinochloa crus-galli; details: Echinochloa crus-galli, post-emergence, 240 h, 0 to 100 scale (0 no effect, 100 complete control), approx. 10 d, read-out: Plant response rating, Barnyardgrass
Summary of the method: as §1

ryegrass, Italian = assay: Test C postemergence; assay type: in vivo, Lolium multiflorum
Excerpt: as §2

wheat = assay: Test A postemergence; assay type: in vivo, Triticum aestivum; details: Triticum aestivum, post-emergence, 240 h, 0 to 100 scale (0 no effect, 100 complete control), approx. 10 d, read-out: Plant response rating, Wheat
Summary of the method: as §1

nutsedge, yellow = assay: Test C postemergence; assay type: in vivo, Cyperus esculentus
Excerpt: as §2

galium = assay: Test C postemergence; assay type: in vivo, Galium aparine
Excerpt: as §2

foxtail, giant [3] = assay: Test A preemergence; assay type: in vivo, Setaria faberii; details: Setaria faberi, pre-emergence, 240 h, 0 to 100 scale (0 no effect, 100 complete control), read-out: Plant response rating, Foxtail, Giant
Summary of the method: as §1

sedge, umbrella = assay: Test B flooded paddy test; assay type: in vivo, Cyperus difformis; details: Cyperus difformis, 360 h, 250 g ai/ha, applied to paddy water at 2-leaf stage, visual rating after 13 to 15 d, scale 0 (no effect) to 100 (complete control), read-out: Plant response rating, Sedge, Umbrella, Flood
Summary of the method: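 Pots were flooded to 3 cm above the soil at treatment, and compounds were applied directly into the paddy water. That depth was held throughout. After 13 to 15 d in a greenhouse, plants were rated visually against untreated controls.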

velvetleaf = assay: Test C postemergence; assay type: in vivo, Abutilon theophrasti
Excerpt: as §2

blackgrass = assay: Test C postemergence; assay type: in vivo, Alopecurus myosuroides
Excerpt: as §2

corn = assay: Test C postemergence; assay type: in vivo, Zea mays
Excerpt: as §2

johnsongrass = assay: Test C postemergence; assay type: in vivo, Sorghum halepense
Excerpt: as §2

foxtail, giant [4] = assay: Test A postemergence; assay type: in vivo, Setaria faberii; details: Setaria faberi, post-emergence, 240 h, 0 to 100 scale (0 no effect, 100 complete control), approx. 10 d, read-out: Plant response rating, Foxtail, Giant
Summary of the method: as §1

barnyardgrass [5] = assay: Test C postemergence; assay type: in vivo, Echinochloa crus-galli
Excerpt: as §2

oilseed rape = assay: Test C postemergence; assay type: in vivo, Brassica napus
Excerpt: as §2

morningglory = assay: Test C postemergence; assay type: in vivo, Ipomoea coccinea
Excerpt: as §2

crabgrass, large = assay: Test C postemergence; assay type: in vivo, Digitaria sanguinalis
Excerpt: as §2

## CCCc1nc(-c2ccc(F)cc2)nn1Cc1ccnc(C(F)(F)F)c1 [Compound 6, 4-[[3-(4-fluorophenyl)-5-propyl-1H-1,2,4-triazol-1-yl]methyl]-2-(trifluoromethyl)pyridine]
Barnyardgrass [1]; 125 g ai/ha
  pest or weed control at 125 g/ha: 80%
Barnyardgrass [1]; 500 g ai/ha, approx. 10 d
  pest or weed control at 500 g/ha: 100%
kochia; 31 g ai/ha
  Plant response rating (scale of 0 to 100 where 0 is no effect and 100 is complete control): 90
kochia; 62 g ai/ha
  Plant response rating (scale of 0 to 100 where 0 is no effect and 100 is complete control): 90
kochia; 125 g ai/ha
  Plant response rating (scale of 0 to 100 where 0 is no effect and 100 is complete control): 90
kochia; 250 g ai/ha
  Plant response rating (scale of 0 to 100 where 0 is no effect and 100 is complete control): 90
pigweed; 125 g ai/ha
  pest or weed control at 125 g/ha: 50%
pigweed; 500 g ai/ha
  pest or weed control at 500 g/ha: 100%
waterhemp; 31 g ai/ha
  Plant response rating (scale of 0 to 100 where 0 is no effect and 100 is complete control): 80
waterhemp; 62 g ai/ha
  Plant response rating (scale of 0 to 100 where 0 is no effect and 100 is complete control): 80
waterhemp; 125 g ai/ha
  Plant response rating (scale of 0 to 100 where 0 is no effect and 100 is complete control): 80
waterhemp; 250 g ai/ha
  Plant response rating (scale of 0 to 100 where 0 is no effect and 100 is complete control): 85
Barnyardgrass [2]; 125 g ai/ha
  pest or weed control at 125 g/ha: 80%
Barnyardgrass [2]; 500 g ai/ha
  pest or weed control at 500 g/ha: 90%
ryegrass, Italian; 31 g ai/ha
  Plant response rating (scale of 0 to 100 where 0 is no effect and 100 is complete control): 5
ryegrass, Italian; 62 g ai/ha
  Plant response rating (scale of 0 to 100 where 0 is no effect and 100 is complete control): 5
ryegrass, Italian; 125 g ai/ha
  Plant response rating (scale of 0 to 100 where 0 is no effect and 100 is complete control): 5
ryegrass, Italian; 250 g ai/ha
  Plant response rating (scale of 0 to 100 where 0 is no effect and 100 is complete control): 10
wheat; 125 g ai/ha
  plant injury at 125 g/ha: 40%
wheat; 500 g ai/ha
  plant injury at 500 g/ha: 70%
nutsedge, yellow; 31 g ai/ha
  Plant response rating (scale of 0 to 100 where 0 is no effect and 100 is complete control): 5
nutsedge, yellow; 62 g ai/ha
  Plant response rating (scale of 0 to 100 where 0 is no effect and 100 is complete control): 5
nutsedge, yellow; 125 g ai/ha
  Plant response rating (scale of 0 to 100 where 0 is no effect and 100 is complete control): 5
nutsedge, yellow; 250 g ai/ha
  Plant response rating (scale of 0 to 100 where 0 is no effect and 100 is complete control): 5
galium; 31 g ai/ha
  Plant response rating (scale of 0 to 100 where 0 is no effect and 100 is complete control): 80
galium; 62 g ai/ha
  Plant response rating (scale of 0 to 100 where 0 is no effect and 100 is complete control): 80
galium; 125 g ai/ha
  Plant response rating (scale of 0 to 100 where 0 is no effect and 100 is complete control): 90
galium; 250 g ai/ha
  Plant response rating (scale of 0 to 100 where 0 is no effect and 100 is complete control): 90
foxtail, giant [3]; 125 g ai/ha
  pest or weed control at 125 g/ha: 100%
foxtail, giant [3]; 500 g ai/ha, approx. 10 d
  pest or weed control at 500 g/ha: 100%
sedge, umbrella
  pest or weed control at 250 g/ha: 80%
velvetleaf; 31 g ai/ha
  Plant response rating (scale of 0 to 100 where 0 is no effect and 100 is complete control): 55
velvetleaf; 62 g ai/ha
  Plant response rating (scale of 0 to 100 where 0 is no effect and 100 is complete control): 55
velvetleaf; 125 g ai/ha
  Plant response rating (scale of 0 to 100 where 0 is no effect and 100 is complete control): 55
velvetleaf; 250 g ai/ha
  Plant response rating (scale of 0 to 100 where 0 is no effect and 100 is complete control): 55
blackgrass; 31 g ai/ha
  Plant response rating (scale of 0 to 100 where 0 is no effect and 100 is complete control): 5
blackgrass; 62 g ai/ha
  Plant response rating (scale of 0 to 100 where 0 is no effect and 100 is complete control): 5
blackgrass; 125 g ai/ha
  Plant response rating (scale of 0 to 100 where 0 is no effect and 100 is complete control): 5
blackgrass; 250 g ai/ha
  Plant response rating (scale of 0 to 100 where 0 is no effect and 100 is complete control): 10
corn; 31 g ai/ha
  Plant response rating (scale of 0 to 100 where 0 is no effect and 100 is complete control): 10
corn; 62 g ai/ha
  Plant response rating (scale of 0 to 100 where 0 is no effect and 100 is complete control): 15
corn; 125 g ai/ha
  Plant response rating (scale of 0 to 100 where 0 is no effect and 100 is complete control): 20
corn; 250 g ai/ha
  Plant response rating (scale of 0 to 100 where 0 is no effect and 100 is complete control): 50
johnsongrass; 31 g ai/ha
  Plant response rating (scale of 0 to 100 where 0 is no effect and 100 is complete control): 10
johnsongrass; 62 g ai/ha
  Plant response rating (scale of 0 to 100 where 0 is no effect and 100 is complete control): 10
johnsongrass; 125 g ai/ha
  Plant response rating (scale of 0 to 100 where 0 is no effect and 100 is complete control): 15
johnsongrass; 250 g ai/ha
  Plant response rating (scale of 0 to 100 where 0 is no effect and 100 is complete control): 35
foxtail, giant [4]; 125 g ai/ha
  pest or weed control at 125 g/ha: 90%
foxtail, giant [4]; 500 g ai/ha
  pest or weed control at 500 g/ha: 90%
Barnyardgrass [5]; 31 g ai/ha
  Plant response rating (scale of 0 to 100 where 0 is no effect and 100 is complete control): 20
Barnyardgrass [5]; 62 g ai/ha
  Plant response rating (scale of 0 to 100 where 0 is no effect and 100 is complete control): 20
Barnyardgrass [5]; 125 g ai/ha
  Plant response rating (scale of 0 to 100 where 0 is no effect and 100 is complete control): 25
Barnyardgrass [5]; 250 g ai/ha
  Plant response rating (scale of 0 to 100 where 0 is no effect and 100 is complete control): 40
Oilseed rape; Oilsee Rape, 250 g ai/ha
  Plant response rating (scale of 0 to 100 where 0 is no effect and 100 is complete control): 95
Oilseed rape; Oilseed Rape, 31 g ai/ha
  Plant response rating (scale of 0 to 100 where 0 is no effect and 100 is complete control): 55
Oilseed rape; Oilseed Rape, 62 g ai/ha
  Plant response rating (scale of 0 to 100 where 0 is no effect and 100 is complete control): 55
Oilseed rape; Oilseed Rape, 125 g ai/ha
  Plant response rating (scale of 0 to 100 where 0 is no effect and 100 is complete control): 95
morningglory; 31 g ai/ha
  Plant response rating (scale of 0 to 100 where 0 is no effect and 100 is complete control): 90
morningglory; 62 g ai/ha
  Plant response rating (scale of 0 to 100 where 0 is no effect and 100 is complete control): 95
morningglory; 125 g ai/ha
  Plant response rating (scale of 0 to 100 where 0 is no effect and 100 is complete control): 98
crabgrass, large; 31 g ai/ha
  Plant response rating (scale of 0 to 100 where 0 is no effect and 100 is complete control): 10
crabgrass, large; 62 g ai/ha
  Plant response rating (scale of 0 to 100 where 0 is no effect and 100 is complete control): 15
crabgrass, large; 125 g ai/ha
  Plant response rating (scale of 0 to 100 where 0 is no effect and 100 is complete control): 25
crabgrass, large; 250 g ai/ha
  Plant response rating (scale of 0 to 100 where 0 is no effect and 100 is complete control): 65

Reference: US10681909B2, “Herbicidal triazoles” (FMC Corporation, priority 2014, dated 2020)
